In publication PMC9698483, “Berbamine Reduces Chloroquine-Induced Itch in Mice through Inhibition of MrgprX1” (International Journal of Molecular Sciences, 2022):
“And” between values parts separate entries of the source, which are not always exact repeats. Identical values can stand only once.

Experiments:
HEK293T cells = experiment: Ionomycin-induced increase in intracellular calcium levels in HEK293T cells; type: cell-based; details: 10 μM ionomycin, 10 min pretreatment
Experimental: To investigate whether berbamine and closantel affect calcium signaling pathways, we observed the effects of berbamine and closantel on CQ- and ionomycin-induced increases in intracellular calcium concentrations in HEK-MrgprX1 and HEK293T cells, respectively.
(§1) Figure 2 Effect of berbamine and closantel on CQ- and ionomycin-induced increases in intracellular calcium levels: (A,B) Intracellular calcium levels were measured using Fluo−4 NW in HEK293T cells expressing MrgprX1. The cells were pretreated with the indicated concentrations of berbamine (BBM) and closantel (CLS) for 10 min prior to treatment with 300 μM CQ. (C) Summary of dose-response (mean ± S.E., n = 6). (D,E) Intracellular calcium levels were increased with 10 μM ionomycin in HEK239T cells. The cells were pretreated with the indicated concentrations of BBM and CLS for 10 min before treatment with ionomycin. (F) Summary of dose–response (mean ± S.E., n = 6).
Intracellular calcium levels were measured using a Fluo-4 NW calcium assay kit (Invitrogen, Carlsbad, CA) as per the manufacturer’s protocol in HEK293T and HT29 cells. […] After 1 h of incubation, Fluo-4 fluorescence was recorded with a FLUOstar Omega microplate reader equipped with syringe pumps and custom Fluo-4 excitation/emission filters (485/538 nm). […]

CQ-induced pruritus = CQ-induced pruritus mouse model (scratching bouts); type: in vivo, BALB/c mice; details: 30 mg/kg intraperitoneally, 30 min before s.c. CQ (400 µg/50 µL), 30 min recording
Experimental: (§2) To investigate the antipruritic effect of berbamine, we observed the effect of berbamine on pruritogen-induced scratching behavior in BALB/c mice. Mice were transferred to clear cages and treated with berbamine intraperitoneally after a 30 min acclimatization period. Mouse behavior was recorded for 30 min right after the subcutaneous injection of pruritogens to the nape 30 min after berbamine treatment (Figure 7A). […] We further investigated the effect of berbamine on pruritus caused by other pruritogens.
(§3) Figure 7 Effect of berbamine on acute pruritogen-induced pruritus in mice: (A) Scheme of acute pruritogen-induced pruritus mouse model. […] Statistical significance of differences between each group and CQ group was assessed using one-way ANOVA with Tukey’s post hoc test. * p < 0.05, ** p < 0.01, *** p < 0.001. […] Statistical significance of differences was determined using Student’s t-test. […]
(§4) […] six-week-old BALB/c male mice were purchased from DBL (Chungcheong-do, Republic of Korea), and an additional 1 week was given for accommodation. […] After 30 min, pruritogen compounds (i.e., CQ, histamine, PAR2-AP, and DCA) were subcutaneously administered into the nape, and scratching bouts were recorded for 30 min. […] The total number of scratching bouts was counted by recording the number of scratching bouts in the recorded video over 30 min of observation time.

PAR2-AP-induced itch = experiment: PAR2-AP-induced pruritus in mice (scratching bouts); type: in vivo, BALB/c mice; details: 30 mg/kg i.p., PAR2-AP 100 μg/50 μL
Experimental: as §2, §3, §4

[1] = test system: CQ-resistant strain of P. falciparum; design: method as in doi:10.1002/ddr.430300405; details: in vitro, compound alone; read-out: IC50 antimalaria effect, CQ-resistant strain; cited from earlier work
[2] = test system: ERK1/2 phosphorylation through MrgprX1; experiment: Immunoblot of ERK1/2 phosphorylation in HEK293T cells expressing MrgprX1; type: cell-based, human; details: HEK-MrgprX1 cells, 10 μM BBM for 10 min prior to CQ
[3] = design: method as in PMID 29100757; details: human pharmacokinetic study; cited from earlier work
MrgprX1 = biological target: T1, MrgprX1 (Homo sapiens, UniProt Q96LB2); experiment: Intracellular calcium measurement (Fluo-4 NW) in HEK293T cells expressing MrgprX1; type: cell-based
T1 construct: expressed in transfected cells
Experimental: To identify novel antagonists of MrgprX1, a cell-based screening assay was established. […] Cells were treated with the indicated concentrations of CQ where the arrow indicates. (B) Summary of dose-response (mean ± S.E., n = 6). (C) Representative Fluo−4 fluorescence traces of MrgprX1 antagonist screening. Cells were treated with 30 μM of the test compounds for 10 min prior to treatment with 300 μM CQ.
as §1, with “(D,E) Intracellular calcium levels were increased with 10 μM ionomycin in HEK239T cells.” left out
Intracellular calcium levels were measured using a Fluo-4 NW calcium assay kit (Invitrogen, Carlsbad, CA) as per the manufacturer’s protocol in HEK293T and HT29 cells. Briefly, the cells were plated in a 96-well black-walled plate and incubated with 100 μL of assay buffer including Fluo-4 NW. […] Intracellular calcium increase was induced with the application of the indicated agonist. All modulators were dissolved in DMSO, and cells were treated with a final concentration of 1% DMSO.

T1 sequence (Q96LB2 whole entry): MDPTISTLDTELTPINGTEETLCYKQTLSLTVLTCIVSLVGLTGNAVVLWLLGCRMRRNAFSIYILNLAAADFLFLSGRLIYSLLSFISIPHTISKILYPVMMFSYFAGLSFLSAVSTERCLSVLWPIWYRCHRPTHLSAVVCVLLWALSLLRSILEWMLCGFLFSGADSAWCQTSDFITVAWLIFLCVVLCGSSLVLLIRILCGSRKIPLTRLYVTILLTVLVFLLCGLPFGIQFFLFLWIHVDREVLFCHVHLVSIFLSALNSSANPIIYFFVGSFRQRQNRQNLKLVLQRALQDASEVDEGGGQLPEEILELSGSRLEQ

For COc1cc2c3cc1Oc1c(OC)c(OC)cc4c1[C@@H](Cc1ccc(O)c(c1)Oc1ccc(cc1)C[C@@H]3N(C)CC2)N(C)CC4 [berbamine], the “effect on ionomycin-induced increase in intracellular calcium levels” value (HEK293T cells) was “no effect”, the “attenuation of CQ-induced pruritus (total scratching bouts)” value (CQ-induced pruritus) was 80% and ~ 80% and the “effect on total scratching bouts induced by PAR2-AP” value (PAR2-AP-induced itch) was “no significant effect”. The IC50 [1] was 359 ± 9 nM, the “effect on CQ-induced ERK1/2 phosphorylation” value [2] was “significantly reduced” and the half-life [3] was 39.25 h. For the same compound, the “activation of MrgprX1 by the compound itself” value (MrgprX1; 30 μM berbamine (Figure S1)) was “did not activate MrgprX1 by itself”, the “mode of inhibition of the activation of MrgprX1 by CQ” value (MrgprX1; 30 μM berbamine, CQ dose response (Figure S3)) was “competitive inhibitory effect” and the “inhibition of MrgprX1 activation by BAM8-22” value (MrgprX1; 10 min pretreatment, 500 nM BAM8-22 (Figure S2)) was “did not potently inhibit”. For the same compound, the inhibition at 30 µM (MrgprX1; HEK-293T, 30 μM test compound for 10 min, then 300 μM CQ, read-out: inhibition of the CQ-induced activation of MrgprX1 (screening)) was over 90% and the IC50 (MrgprX1; pretreated 10 min prior to 300 μM CQ, read-out: IC50 of inhibition of CQ-induced MrgprX1 activation) was 1600 nM.
